Experimental data from US9260382B2, “Methods of reducing virulence in bacteria” (priority 2010, dated 2016).

Experiments:
[1] = system: Pseudomonas syringae pv. tomato DC3000; assay: DC3000 bacterial growth, colony counts; format: cell-based; details: 6 h and 9 h
Description: To determine the maximum concentration of TCA that will inhibit hrpA promoter activity without affecting bacterial growth, DC3000 carrying phrpA was cultured in HIM and HIM supplemented with 25 μM, 50 μM, 100 μM, 250 μM, or 500 μM of TCA. Promoter activity was measured at 6 h and 9 h as mentioned above using flow cytometry. Bacterial growth was determined by withdrawing samples of each culture and spot-plating serial dilutions onto King's B agar (King et al. 1954) in tandem with promoter activity assays. Colonies were counted after 48 h of incubation at 28° C.

[2] = system: HrpW protein; assay: HrpW immunoblot analysis; format: cell-based, Pseudomonas syringae pv. tomato DC3000; details: HIM supplemented with 250 μM
Description: The HrpW protein level was determined by immunoblot using anti-HrpW antibody provided by Dr. Alan Collmer (Cornell University, Ithaca, N.Y.). Sample preparation was performed as previously described with modifications (Yuan and He 1996). Wild-type DC3000 was grown overnight in King's B medium at 28° C. The culture was washed with hrp-inducing medium (HIM) and resuspended in 40 ml of the same medium to an optical density (OD) at 600 nm of 0.1. To determine the effect of TCA on the HrpW protein level, TCA dissolved in DMSO was added to the culture at the final concentration of 250 μM and the culture was grown with moderate shaking at 28° C. DMSO was added to a separate culture as a negative control. After 9 h, the cells were collected by centrifugation at 4,000×g for 10 min and resuspended in 1 ml of phosphate buffered saline (PBS; 137 mM NaCl, 2.7 mM KCl, 4.3 mM Na2HPO4, and 1.47 mM KH2PO4 [pH 7.4]). […]

[3] = system: hrpL mRNA; assay: qRT-PCR relative mRNA level of hrpL; format: cell-based, Dickeya dadantii 3937; details: MM supplemented with 0.1 mM
Description: (§1) Bacterial strains were grown in MM. Total RNA from the bacterial cells was isolated by using the TRI reagent method (Sigma, Mo.) and treated with Turbo DNA-free DNase kits (Ambion, Tex.) as described (Peng et al., 2006). An iScript cDNA Synthesis Kit (Bio-Rad, CA) was used to synthesize cDNA from 0.5 μg of treated total RNA. The Real Master Mix (Eppendorf, Westbury, N.Y.) was used for qRT-PCR reaction to quantify the cDNA level of target genes in different samples. The rplU was used as the endogenous control for data analysis. qRT-PCR data were analyzed using Relative Expression Software Tool as described (Pfaffl, M. W., Horgan, G. W., and Dempfle, L. (2002) Relative expression software tool (REST) for group-wise comparison and statistical analysis of relative expression results in real-time PCR. Nucleic Acids Res 30:e36.).

[4] = system: hrpN mRNA; assay: qRT-PCR relative mRNA level of hrpN; format: cell-based, Dickeya dadantii 3937; details: 0.1 mM in MM
Description: as §1

[5] = system: hrpY mRNA; assay: qRT-PCR relative mRNA level of hrpY; format: cell-based, Dickeya dadantii 3937; details: 0.1 mM in MM
Description: as §1

[6] = system: rsmB RNA; assay: Northern blot analysis of rsmB RNA; format: cell-based, D. dadanti 3937; details: bacterial cells cultured in media supplemented with compound (FIG. 23)
From the text: Northern blot analysis was used to quantify rsmB RNA of D. dadanti 3937.

[7] = system: P. aeruginosa; assay: P. aeruginosa bacterial growth with compound; format: cell-based, P. aeruginosa PA01
Description: To identify T3SS inhibitors of PA01, a promoter-probe vector pPROBE-AT containing the promoterless green fluorescent protein (gfp) gene was used to construct an exoS promoter-gfp plasmid reporter, pATexoS. PA01 containing pATexoS was cultured in T3SS-inducing medium containing dimethyl sulfoxide (DMSO; solvent of chemical compounds), or supplemented with 250 μM of each compound, and promoter activity was assessed at 6 h by measuring GFP intensity using flow cytometry. 101 compounds (58 synthesized and 43 commercially available) were screened. Compounds 027, 032, 101, and 149 repressed exoS expression at the final concentration of 250 μM by at least one standard deviation below the sample average (Z score≦−1) (FIG. 37 A-E). Z score (or standard score) indicates how many standard deviations an observation or datum is above or below the mean [z=(x−μ)/σ, where x is a raw score to be standardized, μ is the mean of the population, and σ is the standard deviation of the population].
To determine the effective concentration of compounds, the dose-dependent effect of potential inhibitors on exoS expression and bacterial growth were tested. P. aeruginosa cells carrying pATexoS were pre-cultured in LB supplemented with 200 mM NaCl and transferred to fresh LB with 200 mM NaCl, 10 mM NTA, and various concentrations of compounds (20, 50, 100, and 250 μM) or DMSO for 6 h. […] At 50 μM dosage, both 027 and 101 inhibited exoS expression at similar levels, and this inhibitory effect increased as compound concentration increased (FIG. 38A and Table 17). […] These inhibitions/inductions of exoS expression are caused by the shifting bacterial population between low-state expression cells and high-state expression cells (FIG. 40).

Compound: O=C(O)/C=C/c1ccccc1 [Compound 001, trans-cinnamic acid]
- colony counts of DC3000 vs control culture, in words ([1]; HIM + 500 μM): slightly lower
- effect on growth of DC3000, in words ([1]; HIM, at or below concentrations of 250 μM): does not significantly inhibit nor enhance growth
- HrpW protein in culture supernatants, immunoblot, in words [2]: absent from the culture supernatants
- HrpW protein in whole cell lysates, immunoblot, in words [2]: undetectable in the whole cell lysates

Compound: O=C(O)/C=C/c1ccc(O)cc1 [Compound 004, para-coumaric acid]
- hrpL mRNA relative expression ratio (MM alone normalized to 1) [3]: 0.039
- hrpN mRNA compared with MM alone, in words [4]: significantly lower amount of mRNA

Compound: O=C(O)/C=C/c1ccccc1O [Compound 006, Ortho-coumaric acid]
- hrpY mRNA compared with MM alone, in words [5]: No significant difference

Compound: O=C(/C=C/c1ccc(O)cc1)NO [Compound 103, trans-4-Hydroxycinnamohydroxamic acid]
- rsmB RNA level, Northern blot, in words [6]: reduced rsmB mRNA
- effect on bacterial growth, in words ([7]; P. aeruginosa, 250 μM): some inhibition on bacterial growth
- dose-dependent effect on P. aeruginosa growth, in words ([7]; various concentrations (up to 250 μM for 101, up to 500 μM for 027), FIG. 39): inverse relationship was observed between the compound concentration and bacterial growth
